Results published in article PMC10687119, “Quaternary Ammonium Salts of Cationic Lipopeptides with Lysine Residues — Synthesis, Antimicrobial, Hemolytic and Cytotoxic Activities” (Probiotics and Antimicrobial Proteins, 2023).
Converted amounts (≈) assume the structure as drawn. Where a SMILES comes first, the peptide text is derived from it. [ ]: non-standard residue; d: D form. The star is where a group is joined. Lys(Me3) = C[N+](C)(C)CCCC[C@H](N)C(=O)O; Stearoyl = CCCCCCCCCCCCCCCCCC(=O)*; Palmitoyl = CCCCCCCCCCCCCCCC(=O)*; Myristoyl = CCCCCCCCCCCCCC(=O)*

Tests used:
E. faecium ATCC 700221 = type: cell-based, Enterococcus faecium; conditions: ATCC 700221, 18 h
Method: (§1) The Acinetobacter baumannii ATCC BAA-1605, Enterococcus faecium ATCC 700221, Klebsiella aerogenes ATCC 13048, Klebsiella pneumoniae ATCC 700603, Pseudomonas aeruginosa ATCC 9027, Staphylococcus aureus ATCC 33591, Candida glabrata ATCC 15126 strains were acquired from the American Type Culture Collection (ATCC, Manassas, USA). All the strains were stored at −80 °C in Roti-Store cryo vials (Carl Roth GmbH, Germany) and before the tests were transferred into fresh Mueller–Hinton broth (MHB, Becton Dickinson, Poland) for bacteria or RPMI-1640 (Sigma-Aldrich, Germany) for fungi and incubated for 24 h at 37 °C. Then, the cultures were cultured on the Mueller–Hinton agar (BioMaxima, Poland) or Sabouraud dextrose agar (SDA, BioMaxima) plates, respectively, and incubated as just mentioned. For microbiological assays, a minimum of three to five well-isolated colonies of the same morphological type were carefully picked from the agar cultures. These colonies were transferred with sterile loop into fresh microbiological medium and incubated with shaking (100 rpm) at 37 °C until they reached logarithmic phase of growth. Cell densities for all assays were adjusted through spectrophotometric measurements (Multiskan GO Microplate Spectrophotometer, Thermo Fisher Scientific, Finland) at 600 and 530 nm for bacteria and fungi, respectively.
(§2) The MICs were determined by broth microdilution method according to the Clinical and Laboratory Standard Institute guidelines. For this purpose, initial inoculums of bacteria (5 × 10^5 CFU/mL) in MHB and yeasts (2 × 10^3 CFU/mL) in RPMI-1640 with 2% D-glucose were exposed to the ranging concentration of lipopeptides (1–512 μg/mL) and incubated at 37 °C for 18 h and 24 h, respectively. The experiments were conducted on 96-well microtiter polystyrene plates (Kartell, Italy). The growth was assessed visually after incubation and the MIC was assumed as the lowest peptide concentration at which a noticeable growth of microorganisms was inhibited. Benzalkonium chloride (Sigma-Aldrich, Germany) was used as reference compound. All experiments were conducted in triplicate.

S. aureus ATCC 33591 = type: cell-based, Staphylococcus aureus; conditions: ATCC 33591, 18 h
Method: as §1, §2

[1] = test system: K. pneumoniae ATCC 700603; type: cell-based, Klebsiella pneumoniae; conditions: ATCC 700603, 18 h
Method: as §1, §2

[2] = test system: A. baumannii ATCC BAA 1605; type: cell-based, Acinetobacter baumannii; conditions: ATCC BAA 1605, 18 h
Method: as §1, §2

P. aeruginosa ATCC 9027 = type: cell-based, Pseudomonas aeruginosa; conditions: ATCC 9027, 18 h
Method: as §1, §2

K. aerogenes ATCC 13048 = type: cell-based, Klebsiella aerogenes; conditions: ATCC 13048, 18 h
Method: as §1, §2

C. glabrata ATCC 15126 = type: cell-based, Candida glabrata; conditions: ATCC 15126, 24 h
Method: as §1, §2

[3] = test system: human red blood cells (RBCs); type: cell-based; conditions: red cells of human
Method: The hemolysis assay was conducted using a procedure described previously. For this purpose, human red blood cells (RBCs) isolated from K2EDTA Single Donor Human Whole blood (Innovative Research, Inc, MI, USA) were rinsed with Phosphate-buffer saline (PBS, pH 7.4±0.05, composition - KCl 2.7 mM, NaCl 140 mM, phosphate 10mM; AppliChem GmbH, Germany) by centrifugation for 10 min at 800 × g. This process was repeated 3 times and the RBCs were resuspended in PBS. Then, the stock solution of RBCs was added to the serial dilution of lipopeptides on 96-well polystyrene plates to reach a final volume of 100 μL with a 4% concentration of erythrocytes (v/v) and a concentration range of 1-512 μg/mL of tested compounds. The control wells for 0% and 100% hemolysis consisted of RBCs suspended in PBS and 1% of Triton X-100 (Sigma-Aldrich, Germany), respectively. Benzalkonium chloride (Sigma-Aldrich, Germany) was used as reference compound. Subsequently, the plates were incubated for 60 min at 37 °C and then centrifuged at 800 × g for 10 min at 4 °C (Sorvall ST […] Centrifuge, Thermo Scientific). The supernatant was carefully […] to new microtiter plates. The release of hemoglobin was monitored absorbance measurements at 540 nm (MultiskanTM GO Microplate Spectrophotometer, Thermo Scientific). All experiments were conducted in triplicate. HC50 was calculated using an ic50.tk tool.

[4] = test system: human keratinocyte cell line (HaCaT); type: cell-based; conditions: 24 h
Method: The immortalized human keratinocyte cell line (HaCaT), obtained from CLS (Cell Line Service, Germany) was cultured in DMEM-high glucose (Dulbecco’s Modified Eagle Medium) supplemented with 10% fetal bovine serum, 2 mM L-glutamine, 100 U/mL penicillin and 100 μg/mL streptomycin (Sigma-Aldrich; Merck KGaA) at 37 °C in a humidified atmosphere with 5% CO2. Cells were trypsinized, and the medium was renewed 2–3 times per week. The cytotoxicity of compounds was assessed by colorimetric CellTilter 96® Aqueous One Solution Cell Proliferation Assay (Promega, USA), containing a tetrazolium compound according to the manufacturer’s instructions. In brief, 7 × 10^3 HaCaT cells per well were plated on 96-well plates and incubated per night to adhere to the cultured dishes. After that time, different concentrations of the tested compounds ranging from 512 to 1 μg/mL were applied to the wells. Every compound was medium-soluble at 37 °C; thus, the non-treated cells were negative control. Serial dilutions of the tested compounds were always prepared before use. Cells were incubated with drugs for 24 h, and then, 20 μL of the CellTiter 96®AqueousOne Solution Reagent was added to each well containing treated cells in 100 µl of culture medium. After 4 h of incubation at 37 °C, the absorbance at 490 nm was recorded using a microplate reader (Epoch, BioTek Instruments, USA). The quantity of formazan product as measured by the amount of 490 nm absorbance is directly proportional to the number of living cells in culture. Benzalkonium chloride (Sigma-Aldrich, Germany) was used as reference compound. At least three independent experiments with two replicates were conducted for each concentration of a compound, and the IC50 values were calculated using GraphPad Prism 8 software.

SMILES | MIC (E. faecium ATCC 700221) | MIC (S. aureus ATCC 33591) | MIC [1] | MIC [2] | MIC (P. aeruginosa ATCC 9027) | MIC (K. aerogenes ATCC 13048) | MIC (C. glabrata ATCC 15126) | HC50 [3] | IC50 [4]
CCCCCCCCCCCCCC(=O)N[C@@H](CCCCN)C(=O)N[C@@H](CCCCN)C(N)=O [Peptide 2M, C14-KK-NH2] | 32 µg/mL (≈ 66.2 µM) | 16 µg/mL (≈ 33.1 µM) | >512 µg/mL | 512 µg/mL (≈ 1060 µM) | 128 µg/mL (≈ 265 µM) | 512 µg/mL (≈ 1060 µM) | 256 µg/mL (≈ 529 µM) | 345.21 ± 12.80 µg/mL | 32.49 ± 4.84 µg/mL (≈ 67.2 µM)
CCCCCCCCCCCCCCCC(=O)N[C@@H](CCCC[N+](C)(C)C)C(=O)N[C@@H](CCCC[N+](C)(C)C)C(N)=O [Peptide 2Pq, C16-K(Me3)^+K(Me3)^+-NH2] | 16 µg/mL | 16 µg/mL | 512 µg/mL | 128 µg/mL | 512 µg/mL | 512 µg/mL | 64 µg/mL | 133.32 ± 6.27 µg/mL | 99.62 ± 9.65 µg/mL
CCCCCCCCCCCCCC(=O)N[C@@H](CCCC[N+](C)(C)C)C(N)=O [Peptide 1Mq, C14-K(Me3)^+-NH2] | 32 µg/mL | 32 µg/mL | >512 µg/mL | 128 µg/mL | 128 µg/mL | 256 µg/mL | 32 µg/mL | 88.25 ± 1.57 µg/mL | 24.81 ± 3.88 µg/mL
CCCCCCCCCCCCCCCC(=O)N[C@@H](CCCC[N+](C)(C)C)C(N)=O [Peptide 1Pq, C16-K(Me3)^+-NH2] | 16 µg/mL | 16 µg/mL | 512 µg/mL | 64 µg/mL | >512 µg/mL | 256 µg/mL | 8 µg/mL | 32.21 ± 1.97 µg/mL | 19.25 ± 9.34 µg/mL

The next lines start with results.

MIC (E. faecium ATCC 700221) | MIC (S. aureus ATCC 33591) | MIC [1] | MIC [2] | MIC (P. aeruginosa ATCC 9027) | MIC (K. aerogenes ATCC 13048) | MIC (C. glabrata ATCC 15126) | HC50 [3] | SMILES | IC50 [4]
16 µg/mL | 64 µg/mL | 256 µg/mL | 256 µg/mL | 512 µg/mL | 64 µg/mL | 512 µg/mL | >512 µg/mL | CCCCCCCCCCCCCCCCCC(=O)N[C@@H](CCCC[N+](C)(C)C)C(=O)N[C@@H](CCCC[N+](C)(C)C)C(=O)N[C@@H](CCCC[N+](C)(C)C)C(=O)N[C@@H](CCCC[N+](C)(C)C)C(N)=O [Peptide 4Sq, C18-K(Me3)^+K(Me3)^+K(Me3)^+K(Me3)^+-NH2] (Stearoyl-[Lys(Me3)][Lys(Me3)][Lys(Me3)][Lys(Me3)]-NH2) | >512 µg/mL
32 µg/mL | 512 µg/mL | >512 µg/mL | >512 µg/mL | >512 µg/mL | 512 µg/mL | >512 µg/mL | >512 µg/mL | CCCCCCCCCCCCCCCC(=O)N[C@@H](CCCC[N+](C)(C)C)C(=O)N[C@@H](CCCC[N+](C)(C)C)C(=O)N[C@@H](CCCC[N+](C)(C)C)C(=O)N[C@@H](CCCC[N+](C)(C)C)C(N)=O [Peptide 4Pq, C16-K(Me3)^+K(Me3)^+K(Me3)^+K(Me3)^+-NH2] (Palmitoyl-[Lys(Me3)][Lys(Me3)][Lys(Me3)][Lys(Me3)]-NH2) | >512 µg/mL
16 µg/mL (≈ 21.6 µM) | 32 µg/mL (≈ 43.2 µM) | >512 µg/mL | 512 µg/mL (≈ 692 µM) | 256 µg/mL (≈ 346 µM) | 256 µg/mL (≈ 346 µM) | 512 µg/mL (≈ 692 µM) | >512 µg/mL | CCCCCCCCCCCCCC(=O)N[C@@H](CCCCN)C(=O)N[C@@H](CCCCN)C(=O)N[C@@H](CCCCN)C(=O)N[C@@H](CCCCN)C(N)=O [Peptide 4M, C14-KKKK-NH2] (Myristoyl-KKKK-NH2) | 252.20 ± 36.68 µg/mL (≈ 341 µM)
32 µg/mL (≈ 52.3 µM) | 64 µg/mL (≈ 105 µM) | >512 µg/mL | 512 µg/mL (≈ 837 µM) | 128 µg/mL (≈ 209 µM) | 256 µg/mL (≈ 418 µM) | 512 µg/mL (≈ 837 µM) | >512 µg/mL | CCCCCCCCCCCCCC(=O)N[C@@H](CCCCN)C(=O)N[C@@H](CCCCN)C(=O)N[C@@H](CCCCN)C(N)=O [Peptide 3M, C14-KKK-NH2] | 237.60 ± 31.18 µg/mL (≈ 388 µM)
128 µg/mL | >512 µg/mL | >512 µg/mL | >512 µg/mL | >512 µg/mL | >512 µg/mL | >512 µg/mL | >512 µg/mL | CCCCCCCCCCCCCC(=O)N[C@@H](CCCC[N+](C)(C)C)C(=O)N[C@@H](CCCC[N+](C)(C)C)C(=O)N[C@@H](CCCC[N+](C)(C)C)C(=O)N[C@@H](CCCC[N+](C)(C)C)C(N)=O [Peptide 4Mq, C14-K(Me3)^+K(Me3)^+K(Me3)^+K(Me3)^+-NH2] (Myristoyl-[Lys(Me3)][Lys(Me3)][Lys(Me3)][Lys(Me3)]-NH2) | >512 µg/mL
32 µg/mL | 256 µg/mL | >512 µg/mL | >512 µg/mL | >512 µg/mL | 512 µg/mL | >512 µg/mL | >512 µg/mL | CCCCCCCCCCCCCCCC(=O)N[C@@H](CCCC[N+](C)(C)C)C(=O)N[C@@H](CCCC[N+](C)(C)C)C(=O)N[C@@H](CCCC[N+](C)(C)C)C(N)=O [Peptide 3Pq, C16-K(Me3)^+K(Me3)^+K(Me3)^+-NH2] | >512 µg/mL
256 µg/mL | >512 µg/mL | >512 µg/mL | >512 µg/mL | >512 µg/mL | >512 µg/mL | >512 µg/mL | >512 µg/mL | CCCCCCCCCCCCCC(=O)N[C@@H](CCCC[N+](C)(C)C)C(=O)N[C@@H](CCCC[N+](C)(C)C)C(=O)N[C@@H](CCCC[N+](C)(C)C)C(N)=O [Peptide 3Mq, C14-K(Me3)^+K(Me3)^+K(Me3)^+-NH2] | >512 µg/mL
